Laboratory results as given in ChEMBL document CHEMBL1671626, “In vitro profiling of ceftaroline against a collection of recent bacterial clinical isolates from across the United States” (2008).

Experiments:
Format in all cases: functional
Staphylococcus aureus [1] = experiment: Antibacterial activity against methicillin-resistant Staphylococcus aureus by CLSI M7-A7 broth microdilution method
Staphylococcus aureus [2] = experiment: Antibacterial activity against methicillin-resistant Staphylococcus aureus assessed as resistant isolates by CLSI M7-A7 broth microdilution method
Staphylococcus aureus [3] = experiment: Antibacterial activity against coagulase-negative and oxacillin-susceptible Staphylococcus aureus assessed as susceptible isolates by CLSI M7-A7 broth microdilution method
Staphylococcus aureus [4] = experiment: Antibacterial activity against coagulase-negative and oxacillin-susceptible Staphylococcus aureus assessed as resistant isolates by CLSI M7-A7 broth microdilution method
Staphylococcus aureus [5] = experiment: Antibacterial activity against coagulase-negative and oxacillin-resistant Staphylococcus aureus by CLSI M7-A7 broth microdilution method
Streptococcus pneumoniae [6] = experiment: Antibacterial activity against penicillin-susceptible Streptococcus pneumoniae by CLSI M7-A7 broth microdilution method
Streptococcus pneumoniae [7] = experiment: Antibacterial activity against penicillin-susceptible Streptococcus pneumoniae assessed as susceptible isolates by CLSI M7-A7 broth microdilution method
Streptococcus pneumoniae [8] = experiment: Antibacterial activity against penicillin-susceptible Streptococcus pneumoniae assessed as resistant isolates by CLSI M7-A7 broth microdilution method
Streptococcus pyogenes [9] = experiment: Antibacterial activity against erythromycin-susceptible Streptococcus pyogenes by CLSI M7-A7 broth microdilution method
Streptococcus pyogenes [10] = experiment: Antibacterial activity against erythromycin-susceptible Streptococcus pyogenes assessed as susceptible isolates by CLSI M7-A7 broth microdilution method
Streptococcus pyogenes [11] = experiment: Antibacterial activity against erythromycin-nonsusceptible Streptococcus pyogenes assessed as susceptible isolates by CLSI M7-A7 broth microdilution method
Streptococcus agalactiae [12] = experiment: Antibacterial activity against erythromycin-susceptible Streptococcus agalactiae assessed as susceptible isolates by CLSI M7-A7 broth microdilution method
Streptococcus agalactiae [13] = experiment: Antibacterial activity against erythromycin-nonsusceptible Streptococcus agalactiae assessed as susceptible isolates by CLSI M7-A7 broth microdilution method
Streptococcus agalactiae [14] = experiment: Antibacterial activity against erythromycin-nonsusceptible Streptococcus agalactiae by CLSI M7-A7 broth microdilution method
Streptococcus viridans [15] = experiment: Antibacterial activity against penicillin-susceptible Streptococcus viridans by CLSI M7-A7 broth microdilution method
Streptococcus viridans [16] = experiment: Antibacterial activity against penicillin-susceptible Streptococcus viridans assessed as susceptible isolates by CLSI M7-A7 broth microdilution method
Streptococcus viridans [17] = experiment: Antibacterial activity against penicillin-susceptible Streptococcus viridans assessed as resistant isolates by CLSI M7-A7 broth microdilution method
Streptococcus viridans [18] = experiment: Antibacterial activity against penicillin-nonsusceptible Streptococcus viridans by CLSI M7-A7 broth microdilution method
Enterobacteriaceae [19] = experiment: Antibacterial activity against ceftazidime-susceptible Enterobacteriaceae by CLSI M7-A7 broth microdilution method
Enterobacteriaceae [20] = experiment: Antibacterial activity against ceftazidime-susceptible Enterobacteriaceae assessed as resistant isolates by CLSI M7-A7 broth microdilution method
Enterobacteriaceae [21] = experiment: Antibacterial activity against ceftazidime-nonsusceptible Enterobacteriaceae by CLSI M7-A7 broth microdilution method
Enterobacteriaceae [22] = experiment: Antibacterial activity against ceftazidime-nonsusceptible Enterobacteriaceae assessed as susceptible isolates by CLSI M7-A7 broth microdilution method
Citrobacter freundii [23] = experiment: Antibacterial activity against ceftazidime-susceptible Citrobacter freundii assessed as resistant isolates by CLSI M7-A7 broth microdilution method
Citrobacter freundii [24] = experiment: Antibacterial activity against ceftazidime-nonsusceptible Citrobacter freundii assessed as susceptible isolates by CLSI M7-A7 broth microdilution method
Enterobacter cloacae [25] = experiment: Antibacterial activity against ceftazidime-susceptible Enterobacter cloacae by CLSI M7-A7 broth microdilution method
Enterobacter cloacae [26] = experiment: Antibacterial activity against ceftazidime-susceptible Enterobacter cloacae assessed as susceptible isolates by CLSI M7-A7 broth microdilution method
Enterobacter cloacae [27] = experiment: Antibacterial activity against ceftazidime-nonsusceptible Enterobacter cloacae by CLSI M7-A7 broth microdilution method
Escherichia coli = experiment: Antibacterial activity against ceftazidime-susceptible Escherichia coli assessed as resistant isolates by CLSI M7-A7 broth microdilution method
Klebsiella pneumoniae [28] = experiment: Antibacterial activity against ceftazidime-susceptible Klebsiella pneumoniae by CLSI M7-A7 broth microdilution method
Klebsiella pneumoniae [29] = experiment: Antibacterial activity against ceftazidime-nonsusceptible Klebsiella pneumoniae assessed as resistant isolates by CLSI M7-A7 broth microdilution method
Morganella morganii [30] = experiment: Antibacterial activity against ceftazidime-susceptible Morganella morganii by CLSI M7-A7 broth microdilution method
Morganella morganii [31] = experiment: Antibacterial activity against ceftazidime-susceptible Morganella morganii assessed as resistant isolates by CLSI M7-A7 broth microdilution method
Proteus mirabilis [32] = experiment: Antibacterial activity against ceftazidime-susceptible Proteus mirabilis by CLSI M7-A7 broth microdilution method
Proteus mirabilis [33] = experiment: Antibacterial activity against ceftazidime-susceptible Proteus mirabilis assessed as resistant isolates by CLSI M7-A7 broth microdilution method
Serratia marcescens = experiment: Antibacterial activity against ceftazidime-susceptible Serratia marcescens assessed as resistant isolates by CLSI M7-A7 broth microdilution method
Acinetobacter [34] = experiment: Antibacterial activity against multidrug-resistant Acinetobacter by CLSI M7-A7 broth microdilution method
Acinetobacter [35] = experiment: Antibacterial activity against imipenem-susceptible Acinetobacter by CLSI M7-A7 broth microdilution method
Acinetobacter [36] = experiment: Antibacterial activity against imipenem-susceptible Acinetobacter assessed as susceptible isolates by CLSI M7-A7 broth microdilution method
Haemophilus influenzae [37] = experiment: Antibacterial activity against beta lactamase-negative Haemophilus influenzae by CLSI M7-A7 broth microdilution method
Haemophilus influenzae [38] = experiment: Antibacterial activity against beta lactamase-negative Haemophilus influenzae assessed as susceptible isolates by CLSI M7-A7 broth microdilution method
Haemophilus influenzae [39] = experiment: Antibacterial activity against beta lactamase-positive Haemophilus influenzae by CLSI M7-A7 broth microdilution method
Pasteurella multocida [40] = experiment: Antibacterial activity against Pasteurella multocida by CLSI M7-A7 broth microdilution method
Pasteurella multocida [41] = experiment: Antibacterial activity against Pasteurella multocida assessed as susceptible isolates by CLSI M7-A7 broth microdilution method
Providencia sp. = experiment: Antibacterial activity against ceftazidime-susceptible Providencia sp. by CLSI M7-A7 broth microdilution method

C[C@H]1COc2c(N3CCN(C)CC3)c(F)cc3c(=O)c(C(=O)O)cn1c23.C[C@H]1COc2c(N3CCN(C)CC3)c(F)cc3c(=O)c(C(=O)O)cn1c23.O [LEVOFLOXACIN] was tested, and the MIC50 (Staphylococcus aureus [1]) was 8 µg/mL, the MIC90 (Staphylococcus aureus [1]) was greater than 16 µg/mL and the Activity (Staphylococcus aureus [2]) was 73.2%. For the same compound, the Activity (Staphylococcus aureus [3]) was 81.6%, the Activity (Staphylococcus aureus [4]) was 17.9% and the MIC50 (Staphylococcus aureus [5]) was 8 µg/mL. It also gave an MIC90 (Staphylococcus aureus [5]) greater than 16 µg/mL, an MIC50 (Streptococcus pneumoniae [6]) of 0.5 µg/mL and an MIC90 (Streptococcus pneumoniae [6]) of 1 µg/mL. It also gave an Activity (Streptococcus pneumoniae [7]) of 98.5%, an Activity (Streptococcus pneumoniae [8]) of 1.5% and an MIC50 (Streptococcus pyogenes [9]) of 0.5 µg/mL. For the same compound, the MIC90 (Streptococcus pyogenes [9]) was 1 µg/mL, the Activity (Streptococcus pyogenes [10]) was 100% and the Activity (Streptococcus pyogenes [11]) was 100%. It also gave an Activity (Streptococcus agalactiae [12]) of 100%, an Activity (Streptococcus agalactiae [13]) of 97.6% and an MIC50 (Streptococcus agalactiae [14]) of 1 µg/mL. It also gave an MIC90 (Streptococcus agalactiae [14]) of 1 µg/mL, an MIC50 (Streptococcus viridans [15]) of 1 µg/mL and an MIC90 (Streptococcus viridans [15]) of 1 µg/mL. The Activity (Streptococcus viridans [16]) was 100%, the Activity (Streptococcus viridans [17]) was 0% and the MIC50 (Streptococcus viridans [18]) was 1 µg/mL. The MIC90 (Streptococcus viridans [18]) was 2 µg/mL, the MIC50 (Enterobacteriaceae [19]) was 0.06 µg/mL and the MIC90 (Enterobacteriaceae [19]) was 4 µg/mL. It also gave an Activity (Enterobacteriaceae [20]) of 9.4%, an MIC50 (Enterobacteriaceae [21]) of 8 µg/mL and an MIC90 (Enterobacteriaceae [21]) greater than 16 µg/mL. The Activity (Enterobacteriaceae [22]) was 41.8%, the Activity (Citrobacter freundii [23]) was 0% and the Activity (Citrobacter freundii [24]) was 72.7%. It also gave an MIC (Enterobacter cloacae [25]) of no more than 0.03 µg/mL, an MIC50 (Enterobacter cloacae [25]) of no more than 0.03 µg/mL and an MIC90 (Enterobacter cloacae [25]) of 0.5 µg/mL. The Activity (Enterobacter cloacae [26]) was 94%, the MIC50 (Enterobacter cloacae [27]) was 0.12 µg/mL and the MIC90 (Enterobacter cloacae [27]) was 1 µg/mL. It also gave an Activity (Escherichia coli) of 13.6%, an MIC50 (Klebsiella pneumoniae [28]) of 0.06 µg/mL and an MIC90 (Klebsiella pneumoniae [28]) of 0.25 µg/mL. The Activity (Klebsiella pneumoniae [29]) was 54.5%, the MIC50 (Morganella morganii [30]) was no more than 0.03 µg/mL and the MIC90 (Morganella morganii [30]) was 8 µg/mL. For the same compound, the Activity (Morganella morganii [31]) was 20.6%, the MIC50 (Proteus mirabilis [32]) was 0.06 µg/mL and the MIC90 (Proteus mirabilis [32]) was 16 µg/mL. For the same compound, the Activity (Proteus mirabilis [33]) was 20.7%, the Activity (Serratia marcescens) was 1.7% and the MIC50 (Acinetobacter [34]) was 16 µg/mL. The MIC50 (Acinetobacter [35]) was 0.5 µg/mL, the MIC90 (Acinetobacter [35]) was greater than 16 µg/mL and the Activity (Acinetobacter [36]) was 51.1%. It also gave an MIC50 (Haemophilus influenzae [37]) of 0.015 µg/mL, an MIC90 (Haemophilus influenzae [37]) of 0.03 µg/mL and an Activity (Haemophilus influenzae [38]) of 100%. The MIC50 (Haemophilus influenzae [39]) was 0.015 µg/mL, the MIC90 (Haemophilus influenzae [39]) was 0.03 µg/mL and the MIC50 (Pasteurella multocida [40]) was no more than 0.015 µg/mL. The MIC90 (Pasteurella multocida [40]) was 0.03 µg/mL, the Activity (Pasteurella multocida [41]) was 95.5% and the MIC50 (Providencia sp.) was 0.25 µg/mL. For the same compound, the MIC90 (Providencia sp.) was greater than 16 µg/mL.
